In this assay the target is T1, human active recombinant p38α-6His tagged (Homo sapiens, UniProt Q16539).
T1 construct: 6His
T1 sequence (Q16539 whole entry): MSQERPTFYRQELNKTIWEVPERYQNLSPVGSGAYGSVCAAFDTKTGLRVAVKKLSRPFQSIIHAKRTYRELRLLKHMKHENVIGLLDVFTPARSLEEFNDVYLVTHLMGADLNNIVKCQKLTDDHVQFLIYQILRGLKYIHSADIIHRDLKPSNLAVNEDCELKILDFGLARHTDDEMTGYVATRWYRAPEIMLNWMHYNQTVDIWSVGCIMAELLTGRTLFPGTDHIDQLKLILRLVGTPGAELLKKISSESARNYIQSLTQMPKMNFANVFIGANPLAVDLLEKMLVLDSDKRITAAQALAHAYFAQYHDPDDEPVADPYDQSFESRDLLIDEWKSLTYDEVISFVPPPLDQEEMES
Nature of the assay: p38 Alpha Enzyme Assay (AlphaScreen, biotinylated-ATF2 substrate). As to conditions: pre-incubated 4 hours at 37° C., reaction initiated with ATP; 0.5 nM enzyme; read-out: p38 pIC50 (converted). The assay is classed as biochemical. (In Alpha technology, singlet oxygen from a donor bead excites a nearby acceptor bead.)
Take `Cc1ccc(C(=O)NC2CC2)cc1-c1ccc2c(=O)n(Cc3ccccc3)cc(C(=O)NC3CCN(C)CC3)c2c1` [Example 50, 2-Benzyl-6-{5-[(cyclopropylamino)carbonyl]-2-methylphenyl}-N-(1-methylpiperidin-4-yl)-1-oxo-1,2-dihydroisoquinoline-4-carboxamide]: the IC50 is 2 nM. Next, `Cc1ccc(C(=O)NC2CC2)cc1-c1ccc2c(=O)n(Cc3ccccc3)cc(C(=O)N3CC[C@@H](N)C3)c2c1` [Example 53, (R)-3-(4-(3-Aminopyrrolidine-1-carbonyl)-2-benzyl-1-oxo-1,2-dihydroisoquinolin-6-yl)-N-cyclopropyl-4-methylbenzamide]: 2 nM; `Cc1ccc(C(=O)NC2CC2)cc1-c1ccc2c(=O)n(Cc3ccncc3)cc(C(=O)N3CCC(N)CC3)c2c1` [Example 58, 3-(4-(4-Aminopiperidine-1-carbonyl)-1-oxo-2-(pyridin-4-ylmethyl)-1,2-dihydroisoquinolin-6-yl)-N-cyclopropyl-4-methylbenzamide]: 2 nM. Next, `CCN1CCC(CNCc2cn(CC3CC3)c(=O)c3ccc(-c4cc(C(=O)NC5CC5)cc(F)c4C)cc23)CC1` [Example 91, N-Cyclopropyl-3-(2-(cyclopropylmethyl)-4-(((1-ethylpiperidin-4-yl)methylamino)methyl)-1-oxo-1,2-dihydroisoquinolin-6-yl)-5-fluoro-4-methylbenzamide]: 7.94 nM; `Cc1ccc(C(=O)NC2CC2)cc1-c1ccc2c(=O)n(CC3CC3)cc(COCCN(C)C)c2c1` [Example 101, N-Cyclopropyl-3-(2-(cyclopropylmethyl)-4-((2-(dimethylamino)ethoxy)methyl)-1-oxo-1,2-dihydroisoquinolin-6-yl)-4-methylbenzamide]: 3.16 nM. Regarding `Cc1c(F)cc(C(=O)NC2CC2)cc1-c1ccc2c(=O)n(CC3CC3)cc(CNCCCN(C)C)c2c1` [Example 77, N-Cyclopropyl-3-(2-(cyclopropylmethyl)-4-((3-(dimethylamino)propylamino)methyl)-1-oxo-1,2-dihydroisoquinolin-6-yl)-5-fluoro-4-methylbenzamide], the IC50 was 1.58 nM. Regarding `Cc1ccc(C(=O)NC2CC2)cc1-c1ccc2c(=O)n(Cc3cccc(OCCN4CCCC4)c3)ccc2c1` [Example 33, N-Cyclopropyl-4-methyl-3-{1-oxo-2-[3-(2-pyrrolidin-1-ylethoxy)benzyl]-1,2-dihydroisoquinolin-6-yl}benzamide], the IC50 is 2 nM.

As to `Cc1ccc(C(=O)NC2CC2)cc1-c1ccc2c(=O)n(Cc3cccc(OCCNCCO)c3)ccc2c1` [Example 35, N-Cyclopropyl-3-[2-(3-{2-[(2-hydroxyethyl)amino]ethoxy}benzyl)-1-oxo-1,2-dihydroisoquinolin-6-yl]-4-methylbenzamide], the IC50 was 2 nM. Next, `Cc1c(F)cc(C(=O)NC2CC2)cc1-c1ccc2c(=O)n(CC3CC3)cc(CN3CCCN(C)CC3)c2c1` [Example 75, N-Cyclopropyl-3-(2-(cyclopropylmethyl)-4-((4-methyl-1,4-diazepan-1-yl)methyl)-1-oxo-1,2-dihydroisoquinolin-6-yl)-5-fluoro-4-methylbenzamide]: 0.0501 nM; `Cc1c(F)cc(C(=O)NC2CC2)cc1-c1ccc2c(=O)n(CC3CC3)cc(CN3C[C@@H](C)N[C@@H](C)C3)c2c1` [Example 80, N-Cyclopropyl-3-(2-(cyclopropylmethyl)-4-(((3S,5R)-3,5-dimethylpiperazin-1-yl)methyl)-1-oxo-1,2-dihydroisoquinolin-6-yl)-5-fluoro-4-methylbenzamide]: 0.316 nM. As for `Cc1ccc(C(=O)NC2CC2)cc1-c1ccc2c(=O)n(Cc3ccc(C(=O)NCCCN4CCCC4)cc3)ccc2c1` [Example 24, N-Cyclopropyl-4-methyl-3-(1-oxo-2-(4-(3-(pyrrolidin-1-yl)propylcarbamoyl)benzyl)-1,2-dihydroisoquinolin-6-yl)benzamide], the IC50 is 0.631 nM. With `Cc1ccc(C(=O)NC2CC2)cc1-c1ccc2c(=O)n(CC3CC3)cc(C(=O)N3CC[C@H](N)C3)c2c1` [Example 43, (S)-3-(4-(3-Aminopyrrolidine-1-carbonyl)-2-(cyclopropylmethyl)-1-oxo-1,2-dihydroisoquinolin-6-yl)-N-cyclopropyl-4-methylbenzamide] the figure was 5.01 nM; with `CCC(CC)Cn1ccc2cc(-c3cc(C(=O)NC4CC4)ccc3C)ccc2c1=O` [Example 123, N-Cyclopropyl-3-(2-(2-ethylbutyl)-1-oxo-1,2-dihydroisoquinolin-6-yl)-4-methylbenzamide], 3.16 nM. In the case of `Cc1c(F)cc(C(=O)NC2CC2)cc1-c1ccc2c(=O)n(CC3CC3)cc(CN3CCN[C@H](C)C3)c2c1` [Example 107, (R)—N-Cyclopropyl-3-(2-(cyclopropylmethyl)-4-((3-methylpiperazin-1-yl)methyl)-1-oxo-1,2-dihydroisoquinolin-6-yl)-5-fluoro-4-methylbenzamide], the IC50 was 0.794 nM. With `Cc1ccc(C(=O)NC2CC2)cc1-c1ccc2c(=O)n(CC3CC3)cc(CN3CCCNCC3)c2c1` [Example 70, N-Cyclopropyl-3-(2-cyclopropylmethyl-4-[1,4]diazepan-1-ylmethyl-1-oxo-1,2-dihydro-isoquinolin-6-yl)-4-methyl-benzamide] the figure was 0.158 nM; with `Cc1c(F)cc(C(=O)NC2CC2)cc1-c1ccc2c(=O)n(CC3CC3)cc(CN3CCN[C@@H](CCO)C3)c2c1` [Example 117, (S)—N-Cyclopropyl-3-(2-(cyclopropylmethyl)-4-((3-(2-hydroxyethyl)piperazin-1-yl)methyl)-1-oxo-1,2-dihydroisoquinolin-6-yl)-5-fluoro-4-methylbenzamide], 0.158 nM; with `Cc1ccc(C(=O)NC2CC2)cc1-c1ccc2c(=O)[nH]ccc2c1` [Example 11, N-Cyclopropyl-4-methyl-3-(1-oxo-1,2-dihydro-isoquinolin-6-yl)-benzamide], 25.1 nM. For the compound `Cc1ccc(C(=O)NC2CC2)cc1-c1ccc2c(=O)n(Cc3ccc(C(=O)N4CCN(C)CC4)cc3)ccc2c1` [Example 20, N-Cyclopropyl-4-methyl-3-(2-(4-(4-methylpiperazine-1-carbonyl)benzyl)-1-oxo-1,2-dihydroisoquinolin-6-yl)benzamide], the IC50 is 1.26 nM. Consider `Cc1ccc(C(=O)NC2CC2)cc1-c1ccc2c(=O)n(Cc3ccc(CN(C)C(C)(C)C)cc3)ccc2c1` [Example 27, 3-(2-(4-((Tert-butyl(methyl)amino)methyl)benzyl)-1-oxo-1,2-dihydroisoquinolin-6-yl)-N-cyclopropyl-4-methylbenzamide], for which the IC50 was 1 nM. Next, `Cc1ccc(C(=O)NC2CC2)cc1-c1ccc2c(=O)n(CC3CC3)ccc2c1` [Example 122, N-Cyclopropyl-3-(2-cyclopropylmethyl-1-oxo-1,2-dihydro-isoquinolin-6-yl)-4-methylbenzamide]: 1.58 nM; `CNCCN(C)Cc1cn(CC2CC2)c(=O)c2ccc(-c3cc(C(=O)NC4CC4)ccc3C)cc12` [Example 64, N-Cyclopropyl-3-(2-(cyclopropylmethyl)-4-((methyl(2-(methylamino)ethyl)amino)methyl)-1-oxo-1,2-dihydroisoquinolin-6-yl)-4-methylbenzamide]: 3.16 nM. With `Cc1ccc(C(=O)NC2CC2)cc1-c1ccc2c(=O)n(CC3CC3)cc(CN3CCC(N(C)C)CC3)c2c1` [Example 69, N-Cyclopropyl-3-(2-(cyclopropylmethyl)-4-((4-(dimethylamino)piperidin-1-yl)methyl)-1-oxo-1,2-dihydroisoquinolin-6-yl)-4-methylbenzamide] the figure was 0.2 nM; with `CN[C@@H]1CCN(Cc2cn(CC3CC3)c(=O)c3ccc(-c4cc(C(=O)NC5CC5)cc(F)c4C)cc23)C1` [Example 106, (R)—N-Cyclopropyl-3-(2-(cyclopropylmethyl)-4-((3-(methylamino)pyrrolidin-1-yl)methyl)-1-oxo-1,2-dihydroisoquinolin-6-yl)-5-fluoro-4-methylbenzamide], 0.316 nM. Next, `CNCCOc1cccc(Cn2ccc3cc(-c4cc(C(=O)NC5CC5)ccc4C)ccc3c2=O)c1` [Example 34, N-Cyclopropyl-4-methyl-3-(2-{3-[2-(methylamino)ethoxy]benzyl}-1-oxo-1,2-dihydroisoquinolin-6-yl)benzamide]: 2.51 nM; `Cc1c(F)cc(C(=O)NC2CC2)cc1-c1ccc2c(=O)n(Cc3ccc(S(C)(=O)=O)cc3)cc(CN3CCN(C)[C@@H](CO)C3)c2c1` [Example 115]: 0.1 nM; `Cc1ccc(C(=O)NC2CC2)cc1-c1ccc2c(=O)n(CC3CC3)cc(CNCCN(C)C)c2c1` [Example 67, N-Cyclopropyl-3-(2-(cyclopropylmethyl)-4-((2-(dimethylamino)ethylamino)methyl)-1-oxo-1,2-dihydroisoquinolin-6-yl)-4-methylbenzamide]: 5.01 nM. On to `Cc1ccc(C(=O)NC2CC2)cc1-c1ccc2c(=O)n(Cc3cccc(OCCCN(C)C)c3)ccc2c1` [Example 10, N-Cyclopropyl-3-{2-[3-(3-dimethylamino-propoxy)-benzyl]-1-oxo-1,2-dihydro-isoquinolin-6-yl}-4-methyl-benzamide], for which the IC50 was 2 nM.

For the compound `Cc1ccc(C(=O)NC2CC2)cc1-c1ccc2c(=O)n(CC3CC3)cc(C(=O)NCCN(C)C)c2c1` [Example 40, 6-(5-(Cyclopropylcarbamoyl)-2-methylphenyl)-2-(cyclopropylmethyl)-N-(2-(dimethylamino)ethyl)-1-oxo-1,2-dihydroisoquinoline-4-carboxamide], the IC50 was 3.98 nM.

Take `Cc1ccc(C(=O)NC2CC2)cc1-c1ccc2c(=O)n(Cc3ccccc3)cc(CCCN(C)C)c2c1` [Example 99, 3-(2-Benzyl-4-(3-(dimethylamino)propyl)-1-oxo-1,2-dihydroisoquinolin-6-yl)-N-cyclopropyl-4-methylbenzamide]: the IC50 is 0.398 nM.

`Cc1c(F)cc(C(=O)NC2CC2)cc1-c1ccc2c(=O)n(CC3CC3)cc(CN3CCN(CCO)CC3)c2c1` [Example 90, N-Cyclopropyl-3-(2-(cyclopropylmethyl)-4-((4-(2-hydroxyethyl)piperazin-1-yl)methyl)-1-oxo-1,2-dihydroisoquinolin-6-yl)-5-fluoro-4-methylbenzamide]: the IC50 was 0.158 nM.

These data come from US8012979B2, “Compounds and their uses 707” (AstraZeneca AB, priority 2007, dated 2011).
